Measured values taken from patent US11292781B2, “Pyrimidine tricyclic enone derivatives for inhibition of ROR-gamma and other uses” (REATA PHARMACEUTICALS, INC., priority 2016, dated 2022).
Like-named read-outs stand apart in the source and are kept apart here.

Columns and labels:
[1] = system: IL-17A levels in primary human CD4+ T cells differentiated into Th17 cells; test: IL-17 release from differentiated primary human T-cells (IL-17A HTRF); type: cell-based
Method: C. IL-17 Release from Differentiated Primary Human T-Cells and Cell Viability Primary human cryopreserved CD4+ T Cells (Lonza, donor #0000402103) were plated in Lymphocyte Growth Medium-3 (LGM-3, Lonza) according to the manufacturer's recommendations, and allowed to recover for approximately 3 hours at 37° C. with 5% CO2 in a humidified atmosphere. […] Triplicate wells were plated for each test condition. DMSO (final concentration ≤0.1%) was used as the vehicle. Immediately after plating, CD4+ T cells were activated by adding Dynabeads Human T-Activator CD3/CD28 (Life Technologies; bead-to-cell ratio of 1:2.5) and differentiated into Th17 cells by adding a mixture of the following cytokines: transforming growth factor-β (TGF-β, 5 ng/mL), IL-6 (20 ng/mL), IL-23 (20 ng/mL), and […] (10 ng/mL). Undifferentiated control cells received only cytokine IL-2 (50 ng/mL). All human recombinant cytokines were purchased from R&D Systems. Following a 46-hour incubation at 37° C. with 5% CO2 in a humidified atmosphere, the plates were centrifuged for 3 minutes at 250×g, and half of the supernatant was transferred to a new plate to be used in the IL-17A assay (see below). Cell viability was assessed in the original plate using the CyQuant Direct Assay (Life Technologies). CyQuant values from test compound samples were normalized to those from DMSO-treated samples. The concentration of IL-17A in the supernatant was measured using the Homogeneous Time-Resolved Fluorescence (HTRF) assay (Cisbio Bioassays) according to the manufacturer's protocol. The assay was performed at room temperature in low volume, solid white 384-well plates (Greiner Bio-One). […] A non-linear regression analysis with log (inhibitor) vs. normalized response using a variable slope was applied to fit the data and determine the IC50 values for inhibition of IL-17A levels and cell viability.

[2] = system: Nrf2 transcription factor (GST ARE luciferase reporter in AREc32 cells); test: AREc32 luciferase reporter assay; type: cell-based, human; settings: EC2×: concentration required to increase GST ARE luciferase reporter activity by 2-fold, 19 hours
From the text: A. AREc32 Luciferase Reporter Assay The AREc32 luciferase reporter assay allows for quantitative assessment of the endogenous activity of the Nrf2 transcription factor in cultured mammalian cells. AREc32 cells are derived from MCF-7 human breast carcinoma cells that were stably transfected with a reporter construct that contains the firefly luciferase gene located downstream of eight copies of the rat GSTA2 antioxidant response element (ARE) sequence (Wang et al., 2006; CXR Biosciences). Active NRF2 binds to the ARE sequences and increases expression of the firefly luciferase gene. […] Luciferase activity was determined using the ONE-Glo Luciferase assay (Promega). The luminescence signal was measured on a BMG Pherastar microplate reader. The mean luminescence value from test compound-treated wells was normalized to that from DMSO-treated wells and was represented as fold-induction. Data were analyzed using GraphPad Prism version 6.00 for Windows, GraphPad Software, La Jolla Calif. USA. A non-linear regression curve with log (agonist) vs. response using a variable slope was used to fit the data. […] EC2× values were interpolated from the curve.

[3] = primary human CD4+ T cells, Th17 differentiation, 46-hour incubation, read-out: hIL17 IC50

Row | SMILES | IC50 [1, 3] [nM] | HRF2 ARE 2× [2] [nM] | IC50 ([1]; Homo sapiens, CD4+ T, 46 h, read-out: hIL17 IC50 (nM)) [nM]
1 | CC[C@@]1(C)C(=O)C(C#N)=C[C@@]2(C)c3nc(-c4ccnc5ccccc45)nc(-c4ccccc4F)c3CC[C@H]12 [T126] | 36 | 280 | 
2 | Cc1noc(-c2nc(-c3ccnc4ccccc34)nc3c2CC[C@@H]2[C@@H](C)C(=O)C(C#N)=C[C@@]32C)n1 [T105] | 65 | 292 | 
3 | Cc1cc(-c2nc(-c3ccccc3F)c3c(n2)[C@]2(C)C=C(C#N)C(=O)[C@H](C)[C@H]2CC3)c2cc(F)ccc2n1 [T85] | 38 | 307 | 
4 | Cc1cc(-c2nc(-c3ccccc3F)c3c(n2)[C@]2(C)C=C(C#N)C(=O)[C@H](C)[C@H]2CC3)c2cccc(F)c2n1 [T63] | 21 | 259 | 
5 | C[C@H]1C(=O)C(C#N)=C[C@@]2(C)c3nc(C4CCCCC4)nc(-c4ccccc4)c3CC[C@H]12 [T23] | 40 | 144 | 
6 | C[C@H]1C(=O)C(C#N)=C[C@@]2(C)c3nc(-c4ccnc5ccccc45)nc(-c4nccs4)c3CC[C@H]12 [T107] | 170 | 284 | 
7 | C[C@H]1C(=O)C(C#N)=C[C@@]2(C)c3nc(-c4ccnc5ccccc45)nc(OCC4CCC4)c3CC[C@H]12 [T95] |  | 430 | 68
8 | CC(C)c1cccc(-c2nc(-c3ccnc4ccccc34)nc3c2CC[C@@H]2[C@@H](C)C(=O)C(C#N)=C[C@@]32C)c1 [T160] | 22 | 418 | 
9 | C[C@H]1C(=O)C(C#N)=C[C@@]2(C)c3nc(C4CCN(C(=O)OC(C)(C)C)CC4)nc(-c4ccccc4)c3CC[C@H]12 [T44] | 60 | 596 | 
10 | C[C@]1(CC2CC2)C(=O)C(C#N)=C[C@@]2(C)c3nc(-c4ccnc5ccccc45)nc(-c4ccccc4F)c3CC[C@H]12 [T157] | 23 | 304 | 
11 | C[C@H]1C(=O)C(C#N)=C[C@@]2(C)c3nc(-c4ccnc(CCC(=O)N(C)C)c4)nc(-c4ccccc4F)c3CC[C@H]12 [T152] | 46 | 323 | 
12 | C[C@H]1C(=O)C(C#N)=C[C@@]2(C)c3nc(-c4cncc5ccccc45)nc(-c4ccccc4F)c3CC[C@H]12 [T66] | 39 | 190 | 
13 | Cc1nc(C)c(-c2nc(-c3ccccc3F)c3c(n2)[C@]2(C)C=C(C#N)C(=O)[C@H](C)[C@H]2CC3)s1 [T70] | 61 | 391 | 
14 | C[C@H]1C(=O)C(C#N)=C[C@@]2(C)c3nc(-c4ncnc5ccccc45)nc(-c4ccc(F)cc4)c3CC[C@H]12 [T114] | 46 | 484 | 
15 | Cc1cnccc1-c1nc(-c2ccccc2F)c2c(n1)[C@]1(C)CC(C#N)=C(O)[C@H](C)[C@H]1CC2 [T55] | 590 | >2000 | 
16 | CCC[C@@]1(C)C(=O)C(C#N)=C[C@@]2(C)c3nc(-c4ccnc(C5CC5)c4)nc(-c4ccccc4F)c3CC[C@H]12 [T137] | 9 | 274 | 
17 | C[C@H]1C(=O)C(C#N)=C[C@@]2(C)c3nc(-c4ccnc5ccccc45)nc(-c4ccccc4)c3CC[C@H]12 [T32] | 68 | 272 | 
18 | CC(=O)OCc1cc(-c2nc(-c3ccccc3F)c3c(n2)[C@]2(C)C=C(C#N)C(=O)[C@H](C)[C@H]2CC3)c2ccccc2n1 [T117] | 58 | 232 | 
19 | C[C@H]1C(=O)C(C#N)=C[C@@]2(C)c3nc(-c4ccnc5ccccc45)nc(-c4cccc(F)c4)c3CC[C@H]12 [T39] | 63 | 427 | 
20 | C[C@H]1C(=O)C(C#N)=C[C@@]2(C)c3nc(-c4cccc5ncccc45)nc(-c4ccccc4)c3CCC[C@H]12 [T183] | 70 | 1868 | 
21 | C[C@H]1C(=O)C(C#N)=C[C@@]2(C)c3nc(-c4cccc5cnccc45)nc(-c4ccccc4F)c3CC[C@H]12 [T86] | 33 | 276 | 

More lines, in order of falling IC50 [1, 3], values ahead:

Row | IC50 [1, 3] [nM] | SMILES | HRF2 ARE 2× [2] [nM] | IC50 ([1]; Homo sapiens, CD4+ T, 46 h, read-out: hIL17 IC50 (nM)) [nM]
22 | 198 | Cc1nc(-c2nc(-c3ccccc3F)c3c(n2)[C@]2(C)C=C(C#N)C(=O)[C@H](C)[C@H]2CC3)no1 [T71] | 780 | 
23 | 178 | Cc1noc(C)c1-c1nc(-c2ccnc3ccccc23)nc2c1CC[C@@H]1[C@@H](C)C(=O)C(C#N)=C[C@@]21C [T100] | 865 | 
24 | 153 | C[C@H]1C(=O)C(C#N)=C[C@@]2(C)c3nc(-c4ccnc5ccccc45)nc(-c4ccco4)c3CC[C@H]12 [T102] | 287 | 
25 | 130 | CC(=O)NCCc1cc(-c2nc(-c3ccccc3F)c3c(n2)[C@]2(C)C=C(C#N)C(=O)[C@H](C)[C@H]2CC3)ccn1 [T178] | 444 | 
26 | 106 | CCC[C@@]12C=C(C#N)C(=O)C[C@H]1CCc1c(-c3ccccc3F)nc(-c3ccnc(C4CC4)c3)nc12 [T167] | 493 | 
27 | 86 | Cc1ccc(-c2nc(-c3ccnc4ccccc34)nc3c2CC[C@@H]2[C@@H](C)C(=O)C(C#N)=C[C@@]32C)o1 [T104] | 293 | 
28 | 71 | CCC[C@@]12C=C(C#N)C(=O)C[C@H]1CCc1c(-c3ccccc3F)nc(-c3ccnc(CF)c3)nc12 [T155] | 267 | 
29 | 65 | C[C@H]1C(=O)C(C#N)=C[C@@]2(C)c3nc(-c4cc(C=O)nc5ccccc45)nc(-c4ccccc4F)c3CC[C@H]12 [T116] | 303 | 
30 | 50 | C[C@H]1C(=O)C(C#N)=C[C@@]2(C)c3nc(-c4ccnc5ccccc45)nc(-c4cccc(-c5ccccc5)c4)c3CC[C@H]12 [T162] | 601 | 
31 | 38 | C[C@H]1C(=O)C(C#N)=C[C@@]2(C)c3nc(-c4ccnc5ccccc45)nc(-c4cc5ccccc5o4)c3CC[C@H]12 [T103] | 277 | 
32 | 37 | Cc1cc(-c2nc(-c3ccccc3F)c3c(n2)[C@]2(C)C=C(C#N)C(=O)C(C)(C)[C@H]2CC3)c2ccccc2n1 [T119] | 351 | 
33 | 37 | Cc1cc(-c2nc(OC3CCC3)c3c(n2)[C@]2(C)C=C(C#N)C(=O)[C@H](C)[C@H]2CC3)c2ccccc2n1 [T110] | 317 | 
34 | 35 | C[C@H]1C(=O)C(C#N)=C[C@@]2(C)c3nc(-c4ccnc5ccccc45)nc(-c4ccc(F)cc4F)c3CC[C@H]12 [T52] | 272 | 
35 | 35 | C[C@H]1C(=O)C(C#N)=C[C@@]2(C)c3nc(-c4ccnc(N5CCOCC5)c4)nc(-c4ccccc4F)c3CC[C@H]12 [T64] | 425 | 
36 | 31 | C=C(C)C[C@@]1(C)C(=O)C(C#N)=C[C@@]2(C)c3nc(-c4ccnc5ccccc45)nc(-c4ccccc4F)c3CC[C@H]12 [T166] | 878 | 
37 | 27 | C[C@H]1C(=O)C(C#N)=C[C@@]2(C)c3nc(-c4ccncc4-c4ccccc4)nc(-c4ccccc4F)c3CC[C@H]12 [T179] | 649 | 
38 | 22 | CCC[C@@]1(C)C(=O)C(C#N)=C[C@@]2(C)c3nc(-c4ccnc5ccccc45)nc(-c4ccccc4F)c3CC[C@H]12 [T124] | 220 | 
39 | 22 | CCC[C@H]1C(=O)C(C#N)=C[C@@]2(C)c3nc(-c4cccc5ncccc45)nc(-c4ccccc4F)c3CC[C@H]12 [T159] | 337 | 
40 | 21 | Cc1cc(-c2nc(-c3cccc(F)c3)c3c(n2)[C@]2(C)C=C(C#N)C(=O)[C@H](C)[C@H]2CC3)c2ccccc2n1 [T108] | 225 | 
41 | 19 | Cc1cc(-c2nc(OC3CCCC3)c3c(n2)[C@]2(C)C=C(C#N)C(=O)[C@H](C)[C@H]2CC3)c2ccccc2n1 [T111] | 317 | 
42 | 14 | C[C@H]1C(=O)C(C#N)=C[C@@]2(C)c3nc(-c4cc(CF)nc5ccccc45)nc(-c4ccccc4F)c3CC[C@H]12 [T115] | 260 | 
43 | 14 | CC1(C)C(=O)C(C#N)=C[C@@]2(C)c3nc(-c4cccc5ncccc45)nc(-c4ccccc4F)c3CC[C@H]12 [T149] | 330 | 
